Reference: ChEMBL document CHEMBL4418295, “Method for identifying modulators of GPCR GPR1 function” (2014)

Molecular target: T1, Chemerin-like receptor 2 (Homo sapiens, UniProt P46091)
T1 sequence (P46091 whole entry): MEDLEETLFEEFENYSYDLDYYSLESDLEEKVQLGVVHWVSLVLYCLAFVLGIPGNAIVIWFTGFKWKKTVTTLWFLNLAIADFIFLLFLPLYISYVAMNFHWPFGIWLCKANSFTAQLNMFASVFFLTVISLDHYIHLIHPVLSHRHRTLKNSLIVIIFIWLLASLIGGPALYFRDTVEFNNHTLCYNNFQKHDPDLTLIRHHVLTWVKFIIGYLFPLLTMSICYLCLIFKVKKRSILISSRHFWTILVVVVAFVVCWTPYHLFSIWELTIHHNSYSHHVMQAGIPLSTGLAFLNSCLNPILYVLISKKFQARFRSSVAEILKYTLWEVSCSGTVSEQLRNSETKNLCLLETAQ
Assay: Agonist activity at recombinant human GPR1 expressed in CHOK1 PathHunter cells assessed as beta-arrestin 2 recruitment incubated for 90 mins by luminescence assay
Type: cell-based

EC50: 92.8 nM
Compound: CC[C@H](C)[C@H](NC(=O)[C@H](CCC(=O)O)NC(=O)[C@@H](CO)NC(=O)[C@@H](NC(=O)[C@H](CC(C)C)NC(=O)[C@H](CC(C)C)NC(=O)[C@H](CC(C)C)NC(=O)[C@H](CC(C)C)NC(=O)[C@H](CS)NC(=O)[C@H](CO)NC(=O)[C@H](Cc1ccccc1)NC(=O)CNC(=O)[C@H](CCCNC(=N)N)NC(=O)[C@@H]1CCCN1C(=O)[C@H](C)NC(=O)[C@@H](N)CCSC)[C@@H](C)O)C(=O)N[C@@H](CC(=O)O)C(=O)N[C@@H](CC(C)C)C(=O)N1CCC[C@H]1C(=O)N[C@H](C(=O)N[C@@H](CCCCN)C(=O)N[C@@H](CCCNC(=N)N)C(=O)N[C@@H](CCCNC(=N)N)C(=O)N[C@@H](C)C(=O)O)C(C)C
